Values belong to the compound of their own block, whether it stands above or below them.
Experiments:
canine PepT1 (cPepT1) [1] = assay: Influence of dexamethasone, insulin and IGF-I on H+-dependent GlySar uptake by MDCK cells (Trials 3A, 3B); type: cell-based; conditions: for effect on H+-dependent GlySar uptake capacity: 5 or 500 nM in DMEM, 4 h of culture
Experimental: MDCK cells were maintained as described in Trial 1, except that cells were cultured for only 1 d before transport trials were performed. Following initial and common culture conditions, cells were cultured in a “nutrient depleted” buffer (Hepes/Tris (pH 7.5),140 mM NaCl, 5.4 mM KCl, 1.8 mM CaCl2, 0.8 mM MgSO4) that contained 5 mM glucose as an energy source, but that lacked amino acid or vitamin sources. In contrast, cells cultured in DMEM, or DMEM that contained 5 nM Dex, 500 nM Dex, 5 nM insulin, or 500 nM insulin, were adequately nourished. Media treatments (n=4) were as follows:
The measurement of [^3H]Glysarcosine uptake was performed by using the 24-well cluster tray method as previously described in the Methods section of Trial 1. Peptide uptake is reported as pmol* mg^−1 protein*30 min^−1. Uptake measurements were taken after 30 min and 4 h of culture in treatment media.
Trial 3B was conducted in the same manner as described for Trail 3A, except that cells were cultured in DMEM or DMEM that contained 1 nM IGF-1, 5 nM IGF-1, 25 nM IGF-1, or 100 nM IGF-1. Uptake measurements were taken after 30 min and 4 h of culture time.

PepT1 = target: T1, PepT1 (Homo sapiens, UniProt P46059); conditions: read-out: Ki of cefadroxil inhibition of GlySar uptake by PepT1; cited from earlier work
T1 sequence (P46059 1-708): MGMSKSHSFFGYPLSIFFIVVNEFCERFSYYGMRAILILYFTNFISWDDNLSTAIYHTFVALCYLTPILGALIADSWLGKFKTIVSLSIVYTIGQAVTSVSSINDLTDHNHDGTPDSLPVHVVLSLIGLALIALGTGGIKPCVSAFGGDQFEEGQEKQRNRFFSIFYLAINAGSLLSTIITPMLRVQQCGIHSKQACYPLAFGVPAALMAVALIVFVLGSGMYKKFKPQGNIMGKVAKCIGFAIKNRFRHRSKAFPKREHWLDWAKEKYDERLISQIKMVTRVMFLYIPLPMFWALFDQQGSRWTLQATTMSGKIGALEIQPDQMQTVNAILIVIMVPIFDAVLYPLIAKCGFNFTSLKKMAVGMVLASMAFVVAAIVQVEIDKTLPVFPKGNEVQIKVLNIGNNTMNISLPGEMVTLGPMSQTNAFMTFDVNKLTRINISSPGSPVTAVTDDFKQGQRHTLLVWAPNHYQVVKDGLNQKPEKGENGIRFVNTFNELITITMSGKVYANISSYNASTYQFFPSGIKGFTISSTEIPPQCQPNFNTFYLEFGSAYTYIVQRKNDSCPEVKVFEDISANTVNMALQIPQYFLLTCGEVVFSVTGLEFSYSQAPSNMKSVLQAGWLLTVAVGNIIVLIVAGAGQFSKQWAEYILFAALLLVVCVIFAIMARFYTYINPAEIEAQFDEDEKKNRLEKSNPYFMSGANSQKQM

canine PepT1 (cPepT1) [2] = target: T2, canine PepT1 (cPepT1) (Canis lupus familiaris, UniProt Q8WMX5); assay: Inhibition of H+-dependent 100 μM GlySar uptake by MDCK cells cultured in LHM; type: cell-based; conditions: 100 μM GlySar
T2 construct: endogenous in cells; host or cells: MDCK (Madin-Darby Canine Kidney) cells, whole-cell [3H]-GlySar uptake
T2 sequence (Q8WMX5 1-708): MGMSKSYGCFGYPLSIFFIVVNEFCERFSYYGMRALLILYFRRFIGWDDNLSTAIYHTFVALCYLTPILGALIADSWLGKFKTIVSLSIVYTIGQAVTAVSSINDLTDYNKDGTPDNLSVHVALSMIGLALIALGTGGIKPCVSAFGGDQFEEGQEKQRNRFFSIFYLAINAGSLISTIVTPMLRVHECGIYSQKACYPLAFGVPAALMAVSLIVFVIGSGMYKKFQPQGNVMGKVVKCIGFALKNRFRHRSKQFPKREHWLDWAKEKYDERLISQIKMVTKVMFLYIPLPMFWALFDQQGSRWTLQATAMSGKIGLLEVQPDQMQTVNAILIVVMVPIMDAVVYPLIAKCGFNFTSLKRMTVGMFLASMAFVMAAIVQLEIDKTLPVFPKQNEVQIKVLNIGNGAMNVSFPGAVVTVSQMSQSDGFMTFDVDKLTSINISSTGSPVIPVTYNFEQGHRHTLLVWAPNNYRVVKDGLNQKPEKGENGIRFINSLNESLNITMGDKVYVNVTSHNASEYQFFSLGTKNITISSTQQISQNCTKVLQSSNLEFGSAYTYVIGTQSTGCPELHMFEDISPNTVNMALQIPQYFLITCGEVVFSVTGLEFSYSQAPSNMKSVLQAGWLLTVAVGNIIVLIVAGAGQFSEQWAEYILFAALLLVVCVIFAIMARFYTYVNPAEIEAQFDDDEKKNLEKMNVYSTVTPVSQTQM
Experimental: Characteristic hallmarks of low affinity H^+/peptide cotransport activity, classically defined using membrane vesicles of several species, and more recently by functional expression studies using human, rat, and rabbit PepT1 cDNA, is the recognition of some, but not all, β-lactam antibiotics. […] To determine whether MDCK cPepT1 activity shared these functional features, the uptake of 100 μM GlySar in the absence and presence of pH 7.5 and pH 6.0 buffer, and, in pH 6.0 buffers, the presence of 1 mM additional GlySar (self-inhibitor control), 3 mM Penicillin-G, 30 μM cefadroxil, or 3 mM cefadroxil was compared (FIG. 13).
Other hallmarks of PepT1 function are the decreased ability of Gly-containing peptides to inhibit GlySar, in proportion to their length, and sensitivity to inhibition by carnosine (β-Ala-His).
Accordingly, the following general regimen was used to perform a series of experiments that evaluated the relative abilities of candidate di-(primarily) and tri-peptides to inhibit GlySar uptake by endogenously expressed cPepT1 in MDCK cells:
1. Sixty thousand cells/well were plated into collagen-coated 24-well trays and cultured at 37° C. in an atmosphere of 95% air/5% CO2 in DMEM/10% FCS that contained antibiotics for 1 day.
2. The media was removed and cells were cultured in LHM/10% FCS/antibiotics for 1 day.
3. The media was removed and cells cultured in LHM/10% FCS (no antibiotics) for 20 h.
4. The media was removed and cells cultured for 30 min in air at 37° C. in depletion medium (25 mM Hepes/Tris (pH 7.5), 140 mM NaCl, 5.4 mM KCl, 1.8 mM CaCl2, 0.8 mM MgSO4, and 5 mM glucose, to normalize intracellular nutrient pools.
5. Transport was initiated by replacing depletion medium with uptake medium (depletion medium adjusted to pH 6.0 or kept at pH 7.4) that contained 100 μM GlySar (at a specific activity of 5 μCi/mL, with [^3H]-GlySar supplying 2.88% of total GlySar substrate) and (or) 1 mM of inhibiting peptide.
In total, 23 inhibitory peptides and 2 drug compounds were screened using this protocol.

PepT2 = target: T3, PepT2 (Homo sapiens, UniProt Q16348); conditions: read-out: Ki of cefadroxil inhibition of PepT2 transport of GlySar; cited from earlier work
T3 sequence (Q16348 1-729): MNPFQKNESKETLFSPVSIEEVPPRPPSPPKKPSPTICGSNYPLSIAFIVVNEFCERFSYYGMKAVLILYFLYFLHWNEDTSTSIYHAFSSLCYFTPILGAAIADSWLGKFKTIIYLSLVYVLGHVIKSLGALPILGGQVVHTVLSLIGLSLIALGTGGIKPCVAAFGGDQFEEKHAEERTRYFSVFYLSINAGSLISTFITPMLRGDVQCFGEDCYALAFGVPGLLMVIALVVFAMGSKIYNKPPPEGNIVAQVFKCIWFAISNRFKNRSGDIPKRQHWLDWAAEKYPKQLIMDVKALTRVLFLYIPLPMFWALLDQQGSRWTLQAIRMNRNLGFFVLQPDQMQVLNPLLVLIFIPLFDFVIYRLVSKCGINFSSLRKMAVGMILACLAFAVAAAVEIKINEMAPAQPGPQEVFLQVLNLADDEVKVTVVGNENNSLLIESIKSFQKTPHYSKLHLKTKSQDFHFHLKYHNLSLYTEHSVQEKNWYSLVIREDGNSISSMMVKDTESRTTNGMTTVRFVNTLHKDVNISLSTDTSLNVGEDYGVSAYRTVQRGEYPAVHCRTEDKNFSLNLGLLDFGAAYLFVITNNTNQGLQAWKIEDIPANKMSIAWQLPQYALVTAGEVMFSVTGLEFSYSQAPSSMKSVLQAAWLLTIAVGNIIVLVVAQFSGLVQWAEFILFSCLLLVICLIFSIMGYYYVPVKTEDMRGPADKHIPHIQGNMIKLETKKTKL

canine PepT1 (cPepT1) [3] = target: T2, canine PepT1 (cPepT1); assay: Substrate regulation of H+-dependent GlySar uptake capacity of MDCK cells cultured in DMEM (Example 3, Trials 1 and 2); type: cell-based; conditions: 10 mM in DMEM
Experimental: All cells were plated (60,000/2 cm^2 well) and cultured (95% air/5% CO2, 37° C.) for 24 h in Dulbecco's Modified Eagle Media/10% fetal calf serum (FCS)/1%Antibiotic/Antimicrobial solution (ABAM) (DMEM media). Following these initial common culture conditions, cells then were cultured in DMEM, or DMEM that contained 10 mM of Camosine, GlyPhe, Phe, or Gly. Media were changed every 24 h. Media treatments (n=8) were as follows:
The measurement of [^3H]Glysarcosine uptake was performed by using a 24-well cluster tray method (Kilberg M S. Measurement of amino acid transport by hepatocytes in suspension and monolayer culture. Methods Enzym 1989; 173:564-575. Matthews J C, Aslanian A, McDonald K K, Yang W, Malandro M S, Novak D A, Kilberg M S. An expression system for mammalian amino acid transport using a stably maintained episomal vector. Anal Biochem 1997; 254:208-214), and used in Examples 1 and 2. Cells were cultured for 30 min in air at 37° C. in depletion medium (25 mM Hepes/Tris (pH 7.5), 140 mM NaCl, 5.4 mM KCl, 1.8 mM CaCl2, 0.8 mM MgSO4, and 5 mM glucose), to normalize intracellular nutrient pools before transport. The transport assays are initiated by replacing depletion medium with uptake medium (Depletion medium adjusted to pH 6.0) that contained 100 μM GlySar (5 μCi/mL, with [^3H]-GlySar supplying 2.88% of total GlySar). After a 30 minute incubation period, transport was terminated with four rinses of 4° C. depletion medium (pH 7.5). Two hundred and twenty μL of 10% trichloroacetic acid was added to each well, and the radioactivity of the supernatant quantified by liquid scintillation counting. The cells of each well are solubilized in 0.2 N NaOH/0.2% SDS and the protein quantified by using the modified Lowry assay, using bovine serum as a standard. Id. Peptide uptake will be reported as pmol* mg^−1 protein* 30 min^−1. Uptake measurements were taken after 24, 48, and 72 hours of culture in treatment media.
The MDCK cell line was maintained as described previously in the Methods section of Trial 1. […]

Compound: C[C@@H]1C[C@H]2[C@@H]3CCC4=CC(=O)C=C[C@]4(C)[C@@]3(F)[C@@H](O)C[C@]2(C)[C@@]1(O)C(=O)CO [dexamethasone]
effect on H+-dependent GlySar uptake capacity (canine PepT1 (cPepT1) [1]): no effect

Compound: IGF-I: Insulin-like Growth factor I
stimulation of H+-dependent GlySar uptake (canine PepT1 (cPepT1) [1]; increasing amounts of IGF-I (1 to 100 nM) in DMEM): no significant stimulation

% inhibition of H+-dependent GlySar uptake (canine PepT1 (cPepT1) [2]; 30 μM cefadroxil): not inhibited | inhibition at 30 µM (canine PepT1 (cPepT1) [2]; MDCK, 30 μM cefadroxil): 0% | inhibition at 3000 µM (canine PepT1 (cPepT1) [2]; MDCK, 3 mM cefadroxil): ~76%
Compound: CC1=C(C(=O)O)N2C(=O)[C@@H](NC(=O)[C@H](N)c3ccc(O)cc3)[C@H]2SC1 [Cefadroxil]
Ki (PepT1): 3000 µM | Ki (PepT2): 30 µM

% inhibition of H+-dependent GlySar uptake (canine PepT1 (cPepT1) [2]; 1 mM extracellular substrate, pH 6.0, 30 min): 50% | increase of GlySar uptake capacity over DMEM-cultured cells (canine PepT1 (cPepT1) [3]; 72 h of culture): 23% | increase of GlySar uptake capacity over DMEM-cultured cells (canine PepT1 (cPepT1) [3]; 216 h of culture): 291%
Compound: NCCC(=O)N[C@@H](Cc1cnc[nH]1)C(=O)O [Carnosine, Carnosine (β-AlaHis)]

Compound: insulin: insulin (negative control)
effect on H+-dependent GlySar uptake capacity (canine PepT1 (cPepT1) [1]): no effect
